Measured values from patent US6867210B2, “Aryl substituted pyrimidines” (Euro-Celtique S.A., priority 2000, dated 2005).
Read-outs that look alike come from different tables or passages of the source.

Legend:
[1] = test system: maximal electroshock-induced seizures (MES); experiment: Maximum electroshock seizure test (MES), anticonvulsant evaluation; format: in vivo; details: Mus musculus, mice
Excerpt: The compounds of the present invention may be tested for in vivo anticonvulsant activity after i.v., p.o. or i.p. injection using a number of anticonvulsant tests in mice, including the maximum electroshock seizure test (MES). Maximum electroshock seizures were induced in male NSA mice weighing between 15-20 g and male Sprague-Dawley rats weighing between 200-225 g by application of current (50 mA, 60 pulses/sec, 0.8 msec pulse width, 1 sec duration, D.C., mice; 99 mA, 125 pulses/sec, 0.8 msec pulse width, 2 sec duration, D.C., rats) using a Ugo Basile ECT device (Model 7801). Mice were restrained by gripping the loose skin on their dorsal surface and saline-coated corneal electrodes were held lightly against the two corneae. Rats were allowed free movement on the bench top and ear-clip electrodes were used. […] A tonic seizure was defined as a hindlimb extension in excess of 90 degrees from the plane of the body. Results were treated in a quantal manner.
The ability of 4-[4-(4-fluorophenoxy)phenyl]-pyrimidine-2-carboxamide to block maximal electroshock-induced seizures (MES) was determined according to the method above.
4-[4-(4-Fluorophenoxy)phenyl]-pyrimidine-2-carboxamide was administered p.o. to mice 30 minutes before the test procedure.
The following compounds on Table 1 were tested accordingly after a p.o. administration and also after an i.v. injection. The compounds were injected i.v. 15 minutes before the test procedure.

[2] = test system: Chung model of neuropathic pain (tactile allodynia); experiment: Chung model of neuropathic pain, tactile antiallodynia effect; format: in vivo; details: rats, p.o.
Excerpt: The compounds may be tested for their potential for the treatment of chronic pain (antiallodynic and antihyperalgesic activities) in the Chung model of peripheral neuropathy. Male Sprague-Dawley rats weighing between 200-225 g were anesthetized with halothane (1-3% in a mixture of 70% air and 30% oxygen) and their body temperature controlled during anesthesia through use of a homeothermic blanket. A 2-cm dorsal midline incision was then made at the L5 and L6 level and the para-vertibral muscle groups retracted bilaterally. L5 and L6 spinal nerves were then be exposed, isolated, and tightly ligated with 6-0 silk suture. A sham operation was performed exposing the contralateral L5 and L6 spinal nerves as a negative control.
Tactile Allodynia: Rats were transferred to an elevated testing cage with a wire mesh floor and allowed to acclimate for five to ten minutes. A series of Semmes-Weinstein monofilaments were applied to the plantar surface of the hindpaw to determine the animal's withdrawal threshold. […] This procedure was repeated with subsequent lesser filaments until there was no response and the lightest filament that elicited a response was recorded. […] For each animal, three measurements were made at every time point to produce an average withdrawal threshold determination. Tests were performed prior to and at 1, 2, 4 and 24 hours post drug administration. Tactile allodynia and mechanical hyperalgesia tests were conducted concurrently.
The tactile antiallodynia effect of the compounds listed in Table 4 was tested in the Chung model of neuropathic pain in rats as described above and described by Kim and Chung (Pain 50:355-363 (1992)). […]

[3] = target: rBIIA isoform of Na+ channels (Rattus norvegicus, UniProt P04775); experiment: Electrophysiological Assay 1: patch-clamp of voltage-sensitive Na+ currents in HEK-293 cells; format: cell-based; details: HEK-293 cells stably expressing rBIIA; for Ki: apparent antagonist dissociation constant for inactivated sodium channels
Protocol: Cell preparation: HEK-293 (NaIIA-B2) cell line stably expressing the rBIIA isoform of Na^+ channels was established in-house. The cells were cultured using standard techniques, as described previously (Verdoom, T. A, et al., Neuron 4:919-928 (1990)). For electrophysiology, cells were plated onto poly-D-lysine pre-coated Cellware 35 mm Petri dishes (BIOCOAT, Becton Dickinson) at a density of ˜10^4 cells/dish on the day of re-seeding from confluent cultures. Our experience has been that cells are suitable for recordings for 2-3 days after plating.
Patch-clamp recordings of voltage-sensitive Na^+ currents: Whole-cell voltage-clamp recordings were made using conventional patch-clamp techniques (Hamill et al., Pfluegers Arch. 391:85-100 (1981)) with an Axopatch 200A amplifier (Axon Instruments, Foster City, Calif.). The recording chamber was continuously superfused with the external solution (150 mM NaCl, 5.4 mM KCl, 1.8 mM CaCl2, 1 mM MgCl2, 10 mM HEPES, 10 mM glucose, pH 7.4 adjusted with NaOH, osmolality ˜320 mmol/kg) at a speed of about 1 mL/min. Recording pipettes were pulled from the thick-walled capillaries (WPI, Sarasota, Fla.) and fire-polished. The pipette resistances ranged from 1 to 3 MΩ when the pipettes were filled with internal solution containing (in mM): 130 CsF, 20 NaCl, 2 MgCl2, 10 EGTA, 10 HEPES, pH adjusted to 7.4 with CsOH, osmolality ˜310 mmol/kg. Drugs and intervening wash-outs were applied through a linear array of flow pipes (Drummond Microcaps, 2 μL, 64-mm length). Compounds are dissolved in dimethylsulfoxide (DMSO) to make a 30 mM stock solution, which was subsequently diluted into the external solution to give final concentrations of 0.1-100 μM. At the highest (1%) concentration, DMSO inhibited the size of Na^+ current only slightly. Currents were recorded at room temperature (22-25° C.), filtered at 3 kHz with an active 8-pole Bessel filter (Frequency Devices, Haverhill, Mass.), digitized at 10-50 μs intervals, and stored using Digidata 1200 analog/digital interface with Pclamp6/Clampex software (Axon Instruments). Series resistance was cancelled typically by ˜75% when necessary.
The following voltage pulse protocols A, B, C, and D were used to assess the potency and kinetics of inhibition of the Na^+ channels by the compounds (FIGS. 1A-1D).
Current-voltage relationship (IV-curve), protocol A (FIG. 1A), was used to report the voltage at which the maximal inward Na^+ current is achieved. This voltage was used throughout the experiment as testing voltage, Vt. The steady-state inactivation (or, availability) curve, protocol C (FIG. 1C), was used to get the voltage at which almost complete (≧95%) inactivation of Na^+ channels occurs; it served as voltage for conditioning prepulse, Vc, throughout the experiment. Protocol B (FIG. 1B) reports how fast the channels recover from inactivation at hyperpolarized voltages. This permitted us to set up the duration of the hyperpolarization gap which is used in measurement of the kinetics of binding of compounds to inactivated Na^+ channels (protocol D (FIG. 1D)). Channel repriming under control conditions was fast (≧90% recovery during first 5-10 ms). If a drug substantially retards the repriming process then it becomes possible (protocol D) to accurately measure the kinetics of binding of the inhibitor to inactivated channels as well as the steady-state affinity (k+ and Ki). To estimate k+ values the reduction in peak currents in successive trials with varying pre-pulse duration was plotted as a function of pre-pulse duration and the time constant (τ) measured by mono-exponential fit. A plot of 1/τ as a function of antagonist concentration then allowed calculating of the macroscopic binding rates of the antagonists. […]

[4] = iv, i.v. injection 15 minutes before the test, read-out: MES i.v. ED50
[5] = po, p.o., 30 minutes before the test, ED50 = dose protecting 50% of animals, read-out: MES p.o. ED50

Compound | Ki [3] [nM] | inhibition of voltage-gated sodium currents [3] | melting point [°C] | ED50 [1, 4] [mg/kg] | ED50 [1, 5] [mg/kg] | MED (minimal effective dose) [2] [Mg/kg]
NC(=O)c1ccnc(-c2ccc(Oc3ccc(Cl)cc3F)cc2)n1 [2-[4-(4-Chloro-2-fluorophenoxy)phenyl]pyrimidine-4-carboxamide] | 220 |  |  | 2.3 | 5.7 | 1.25
NC(=O)c1nc(-c2ccc(Oc3ccccc3)cc2)c(N)nc1N [3,5-Diamino-6-(4-phenoxyphenyl)pyrazine-2-carboxamide] | 2200 |  |  |  |  | 
NC(=O)c1nccc(-c2ccc(Oc3ccc(F)cc3F)cc2)n1 [4-[4-(2,4-Difluorophenoxy)phenyl]-pyrimidine-2-carboxamide] | 360 |  |  | 0.9 | 1.4 | 
CC(C)(C)NC(=O)c1nccc(-c2ccc(Oc3ccc(F)cc3)cc2)n1 [4-[4-(4-Fluorophenoxy)phenyl]-pyrimidine-2-carboxylic acid tert-butylamide] | 180 |  |  |  |  | 
NC(=O)c1nccc(-c2ccc(Oc3ccc(C(F)(F)F)cc3)cc2)n1 [4-[4-(4-Trifluoromethylphenoxy)phenyl]-pyrimidine-2-carboxamide] | 210 |  |  | 0.5 | 2.5 | 
NC(=O)c1cccc(-c2ccc(Oc3ccccc3)cc2)n1 [6-(4-Phenoxyphenyl)pyridine-2-carboxamide] |  |  | 178 to 180 | 3.2 | 10.5 | 

Now from value to compound, other results behind:

Ki [3] [nM] | inhibition of voltage-gated sodium currents [3] | melting point [°C] | Compound | ED50 [1, 4] [mg/kg] | ED50 [1, 5] [mg/kg] | MED (minimal effective dose) [2] [Mg/kg]
100 |  |  | NC(=O)c1ccnc(-c2ccc(Oc3ccc(F)cc3)cc2)n1 [2-[4-(4-Fluorophenoxy)phenyl]pyrimidine-4-carboxamide] | 2.5 | 7.5 | 2.50
20000 |  |  | Fc1ccc(Oc2ccc(-c3nccc(-c4nc[nH]n4)n3)cc2)cc1 [2-[4-(4-fluorophenoxy)phenyl]-4-[3-(1,2,4-triazolyl)]pyrimidine] |  |  | 
490 | dose-dependent inhibition |  | NC(=O)c1nccc(-c2ccc(Oc3ccc(F)cc3)cc2)n1 [4-[4-(4-Fluorophenoxy)phenyl]-pyrimidine-2-carboxamide] | 0.7 | 1.6 | 
13500 |  |  | CN(C)C(=O)c1nccc(-c2ccc(Oc3ccc(F)cc3)cc2)n1 [4-[4-(4-Fluorophenoxy)phenyl]-pyrimidine-2-carboxylic acid dimethylamide] |  |  | 
51000 |  |  | O=C(O)c1nccc(-c2ccc(Oc3ccc(F)cc3)cc2)n1 [4-[4-(4-Fluorophenoxy)phenyl]-pyrimidine-2-carboxylic acid] |  |  | 
70 |  |  | NC(=O)c1cccc(-c2ccc(Oc3ccc(F)cc3)cc2)n1 [6-[4-(4-Fluorophenoxy)phenyl]pyridine-2-carboxamide] | 1.2 | 3.3 | 2.50
